According to patent US9771372B2, “Compounds useful as S100-inhibitors” (Active Biotech AB, priority 2014, dated 2017):

Biological target: T1, interaction between biotinylated human S100A9 and human RAGE-Fc (Homo sapiens, UniProt P06702)
T1 construct: made in house; host or cells: E. coli BL21(DE3)/pET1120 (pLR757)
T1 sequence (P06702 1-114): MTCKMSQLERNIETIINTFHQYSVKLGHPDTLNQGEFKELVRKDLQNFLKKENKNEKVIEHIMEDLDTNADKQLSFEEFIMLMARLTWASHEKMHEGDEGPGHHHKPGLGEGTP
Experiment: AlphaScreen inhibition assay, Biot-hS100A9:hRAGE-Fc (S100A9-RAGE inhibition assay)
Assay type: binding
Conditions: biot-hS100A9 and rhRAGE-Fc, Ca2+ and Zn2+ in buffer
In short: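 Biotinylated human S100A9, in HBS-P with CaCl2 and ZnCl2, preincubated 1 h at room temperature in the dark with compound (final DMSO ≤1.25%), then combined with rhRAGE-Fc on protein A Acceptor beads plus streptavidin Donor beads (20 μg/mL each). Protein levels batch-dependent; percent inhibition from AlphaScreen signal vs DMSO-only control.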

Compound | IC50
CC(C)(C)c1ccc(-c2cccc3c2nc2n3C(NC(=O)CCC3CCCC3)(C(F)(F)F)C(=O)N2)cc1 (centres unmarked) [Example 191, N-[9-(4-tert-butylphenyl)-4-oxo-3-(trifluoromethyl)-2,5,7-triazatricyclo[6.4.0.0^2,6]dodeca-1(12),6,8,10-tetraen-3-yl]-3-cyclopentylpropanamide] | 1.49 µM
O=C(CCC1CCCC1)NC1(C(F)(F)F)C(=O)Nc2nc3c(C(=O)O)cccc3n21 (single isomer, unassigned) [Example 231a, 3-(3-cyclopentylpropanamido)-4-oxo-3-(trifluoromethyl)-2,5,7-triazatricyclo[6.4.0.0^2,6]dodeca-1(12),6,8,10-tetraene-9-carboxylic acid] | 0.66 µM
CC(=O)c1cccc2c1nc1n2C(NC(=O)CCC2CCCC2)(C(F)(F)F)C(=O)N1 (single isomer, unassigned) [Example 224b, N-[9-acetyl-4-oxo-3-(trifluoromethyl)-2,5,7-triazatricyclo[6.4.0.0^2,6]dodeca-1(12),6,8,10-tetraen-3-yl]-3-cyclopentylpropanamide] | 10.1 µM
O=C(CCC1CCCC1)NC1(C(F)(F)F)C(=O)Nc2nc3c(F)cc(F)cc3n21 (centres unmarked) [Example 86, 3-cyclopentyl-N-[9,11-difluoro-4-oxo-3-(trifluoromethyl)-2,5,7-triazatricyclo-[6.4.0.0^2,6]dodeca-1(12),6,8,10-tetraen-3-yl]propanamide] | 6.4 µM
Cc1cc2nc3n(c2cc1C)C(NC(=O)CCC1CCCC1)(C(F)(F)F)C(=O)N3 (single isomer, unassigned) [Example 218b, 3-cyclopentyl-N-[10,11-dimethyl-4-oxo-3-(trifluoromethyl)-2,5,7-triazatricyclo[6.4.0.0^2,6]dodeca-1(12),6,8,10-tetraen-3-yl]propanamide] | 0.73 µM
Cc1cc2nc3n(c2cc1C)C(NC(=O)c1cccc(C2CCCCC2)n1)(C(F)(F)F)C(=O)N3 (centres unmarked) [Example 36, 6-cyclohexyl-N-[10,11-dimethyl-4-oxo-3-(trifluoromethyl)-2,5,7-triazatricyclo[6.4.0.0^2,6]-dodeca-1(12),6,8,10-tetraen-3-yl]pyridine-2-carboxamide] | 3.7 µM
O=C(CCC1CCCC1)NC1(C(F)(F)F)C(=O)Nc2nc3cc4c(cc3n21)CCC4 (centres unmarked) [Example 78, 3-cyclopentyl-N-[12-oxo-11-(trifluoromethyl)-10,13,15-triazatetracyclo[7.6.0.0^3,7.0^10,14]-pentadeca-1(9),2,7,14-tetraen-11-yl]propanamide] | 1.2 µM
O=C(CCC1CCCC1)NC1(C(F)(F)F)C(=O)Nc2nc3c(-c4ccc(Cl)cc4)cccc3n21 (centres unmarked) [Example 201, N-[9-(4-chlorophenyl)-4-oxo-3-(trifluoromethyl)-2,5,7-triazatricyclo[6.4.0.0^2,6]dodeca-1(12),6,8,10-tetraen-3-yl]-3-cyclopentylpropanamide] | 0.85 µM
